Tests used:
DU-145 [1] = settings: DU-145 (Prostate Cancer), 48 h, SRB
UO-31 = test: NCI DTP 60 cell line screen, SRB; settings: for GI50 / CC50: Homo sapiens, UO-31, 48 h; for CC50: read-out: LC50; for TGI: UO-31 (Renal Cancer), 48 h, SRB
HL-60(TB) = settings: for TGI: HL-60(TB) (Leukemia), 48 h, SRB
OVCAR-3 = test: NCI DTP 60 cell line screen, SRB; settings: for GI50 / CC50: Homo sapiens, OVCAR-3, 48 h; for CC50: read-out: LC50; for TGI: OVCAR-3 (Ovarian Cancer), 48 h, SRB
OVCAR-5 = test: NCI DTP 60 cell line screen, SRB; settings: for GI50 / CC50: Homo sapiens, OVCAR-5, 48 h; for CC50: read-out: LC50; for TGI: OVCAR-5 (Ovarian Cancer), 48 h, SRB
PC-3 [2] = settings: PC-3 (Prostate Cancer), 48 h, SRB
LOX IMVI = LOX IMVI (Melanoma), 48 h, SRB
Colo 205 = test: NCI DTP 60 cell line screen, SRB; settings: for TGI: Colo 205 (Colon Cancer), 48 h, SRB; for GI50 / CC50: Homo sapiens, COLO 205, 48 h; for CC50: read-out: LC50
SN12C [3] = test: cells; settings: Homo sapiens, 48 h; for CC50: read-out: LC50
MOLT-4 [4] = test: cells; settings: Homo sapiens, MOLT-4, 48 h; for CC50: read-out: LC50
TK-10 = test: NCI DTP 60 cell line screen, SRB; settings: for GI50 / CC50: Homo sapiens, TK-10, 48 h; for CC50: read-out: LC50; for TGI: TK-10 (Renal Cancer), 48 h, SRB
PC-3 [5] = test: cells; settings: Homo sapiens, PC-3, 48 h; for CC50: read-out: LC50
MOLT-4 [6] = settings: for TGI: MOLT-4 (Leukemia), 48 h, SRB; for TI (Therapeutic Index): GI50 (normal blood lymphocyte)/GI50 (MOLT-4)
CCRF-CEM = test: NCI DTP 60 cell line screen, SRB; settings: 48 h; for TGI: CCRF-CEM (Leukemia), SRB; for GI50 / CC50: Homo sapiens, CCRF-CEM; for CC50: read-out: LC50
SN12C [7] = settings: SN12C (Renal Cancer), 48 h, SRB
SK-MEL-2 [8] = test: cells; settings: Homo sapiens, SK-MEL-2, 48 h; for CC50: read-out: LC50
DU-145 [9] = test: cells; settings: Homo sapiens, DU-145, 48 h; for CC50: read-out: LC50
NCI-H460 [10] = test: cells; settings: Homo sapiens, NCI-H460, 48 h; for CC50: read-out: LC50
KM12 = KM12 (Colon Cancer), 48 h, SRB
OVCAR-8 = test: NCI DTP 60 cell line screen, SRB; settings: for GI50 / CC50: Homo sapiens, OVCAR-8, 48 h; for CC50: read-out: LC50; for TGI: OVCAR-8 (Ovarian Cancer), 48 h, SRB
RPMI-8226 = settings: for TGI: RPMI-8226 (Leukemia), 48 h, SRB; for TI (Therapeutic Index): GI50 (normal blood lymphocyte)/GI50 (RPMI-8226)
EKVX = EKVX (Non-Small Cell Lung Cancer), 48 h, SRB
NCI-H226 = test: NCI DTP 60 cell line screen, SRB; settings: for GI50 / CC50: Homo sapiens, NCI-H226, 48 h; for CC50: read-out: LC50; for TGI: NCI-H226 (Non-Small Cell Lung Cancer), 48 h, SRB
UACC-62 = test: NCI DTP 60 cell line screen, SRB; settings: for GI50 / CC50: Homo sapiens, UACC-62, 48 h; for CC50: read-out: LC50; for TGI: UACC-62 (Melanoma), 48 h, SRB
HOP-62 = test: cells; settings: Homo sapiens, HOP-62, 48 h; for CC50: read-out: LC50
A498 = test: NCI DTP 60 cell line screen, SRB; settings: for TGI: A498 (Renal Cancer), 48 h, SRB; for GI50 / CC50: Homo sapiens, A498, 48 h; for CC50: read-out: LC50
SK-MEL-2 [11] = settings: SK-MEL-2 (Melanoma), 48 h, SRB
NCI-H460 [12] = settings: NCI-H460 (Non-Small Cell Lung Cancer), 48 h, SRB
T-47D = T-47D (Breast Cancer), 48 h, SRB
SNB-75 = SNB-75 (CNS Cancer), 48 h, SRB
SK-MEL-28 [13] = settings: SK-MEL-28 (Melanoma), 48 h, SRB
SK-MEL-28 [14] = test: cells; settings: Homo sapiens, SK-MEL-28, 48 h; for CC50: read-out: LC50
HT-29 = test: NCI DTP 60 cell line screen, SRB; settings: for TGI: HT-29 (Colon Cancer), 48 h, SRB; for GI50 / CC50: Homo sapiens, HT-29, 48 h; for CC50: read-out: LC50

O=C1/C(=C/C(Cl)=C/c2ccc([N+](=O)[O-])cc2)SC(=S)N1/N=C\C(Cl)=C\c1ccc([N+](=O)[O-])cc1 [Compound 2c, 5-[(Z,2Z)-2-Chloro-3-(4-nitrophenyl)-2-propenylidene]-3-[(Z,2Z)-2-chloro-3-(4-nitrophenyl)-2-propenylideneamino]-2-thioxo-4-thiazolidinone]
TGI (DU-145 [1]): 52.8 µM
GI50 (UO-31): 17.5 µM
CC50 (UO-31): 59.1 µM
TGI (UO-31): 32.2 µM
TGI (HL-60(TB)): 23.3 µM
GI50 (OVCAR-3): 0.821 µM
CC50 (OVCAR-3): 41.1 µM
TGI (OVCAR-3): 12.7 µM
GI50 (OVCAR-5): 15.1 µM
CC50 (OVCAR-5): 86.6 µM
TGI (OVCAR-5): 36.2 µM
TGI (PC-3 [2]): 45.8 µM
TGI (LOX IMVI): 28.8 µM
TGI (Colo 205): > 100 µM
GI50 (Colo 205): 56.2 µM
CC50 (Colo 205): > 100 µM
GI50 (SN12C [3]): 29 µM
CC50 (SN12C [3]): > 100 µM
GI50 (MOLT-4 [4]): 3.2 µM
CC50 (MOLT-4 [4]): 52.5 µM
GI50 (TK-10): 28 µM
CC50 (TK-10): > 100 µM
TGI (TK-10): 69.6 µM
GI50 (PC-3 [5]): 8.1 µM
CC50 (PC-3 [5]): > 100 µM
TGI (MOLT-4 [6]): 8.95 µM
TGI (CCRF-CEM): 35.3 µM
GI50 (CCRF-CEM): 4.42 µM
CC50 (CCRF-CEM): > 100 µM
TGI (SN12C [7]): > 100 µM
GI50 (SK-MEL-2 [8]): 19 µM
CC50 (SK-MEL-2 [8]): 69.8 µM
GI50 (DU-145 [9]): 21.7 µM
CC50 (DU-145 [9]): > 100 µM
GI50 (NCI-H460 [10]): 15 µM
CC50 (NCI-H460 [10]): 69.5 µM
TGI (KM12): 59.1 µM
GI50 (OVCAR-8): 1.98 µM
CC50 (OVCAR-8): 8.38 µM
TGI (OVCAR-8): 4.08 µM
TGI (RPMI-8226): 6.32 µM
TGI (EKVX): 47.7 µM
GI50 (NCI-H226): 12 µM
CC50 (NCI-H226): 84.2 µM
TGI (NCI-H226): 31.8 µM
GI50 (UACC-62): 13.6 µM
CC50 (UACC-62): 58 µM
TGI (UACC-62): 28.1 µM
GI50 (HOP-62): 17.2 µM
CC50 (HOP-62): 91.9 µM
TGI (A498): 29.6 µM
GI50 (A498): 13 µM
CC50 (A498): 67.3 µM
TGI (SK-MEL-2 [11]): 36.4 µM
TGI (NCI-H460 [12]): 32.3 µM
TGI (T-47D): 65.3 µM

O=C1/C(=C/C(Cl)=C/c2ccc([N+](=O)[O-])cc2)SC(=S)N1c1ccc(O)cc1 [Compound 2f, 5-[(Z,2Z)-2-Chloro-3-(4-nitrophenyl)-2-propenylidene]-3-(4-hydroxyphenyl)-2-thioxo-4-thiazolidinone]
TGI (SNB-75): > 100 µM
TGI (DU-145 [1]): 5.81 µM
GI50 (UO-31): 2.08 µM
CC50 (UO-31): > 100 µM
TGI (UO-31): 3.98 µM
TI (Therapeutic Index) (HL-60(TB); GI50 (normal blood lymphocyte)/GI50 (HL-60(TB))): >206.19
TGI (HL-60(TB)): 4.48 µM
GI50 (OVCAR-3): 0.977 µM
CC50 (OVCAR-3): > 100 µM
TGI (OVCAR-3): 41.8 µM
TGI (SK-MEL-28 [13]): 47.7 µM
GI50 (SK-MEL-28 [14]): 4.49 µM
CC50 (SK-MEL-28 [14]): > 100 µM
TGI (PC-3 [2]): 84.8 µM
TGI (LOX IMVI): 3.70 µM
TGI (Colo 205): > 100 µM
GI50 (Colo 205): 4.34 µM
CC50 (Colo 205): > 100 µM
GI50 (SN12C [3]): 1.98 µM
CC50 (SN12C [3]): > 100 µM
GI50 (MOLT-4 [4]): 0.389 µM
CC50 (MOLT-4 [4]): > 100 µM
GI50 (TK-10): 4.87 µM
CC50 (TK-10): > 100 µM
TGI (TK-10): 29.0 µM
GI50 (PC-3 [5]): 2.29 µM
CC50 (PC-3 [5]): > 100 µM
TI (Therapeutic Index) (MOLT-4 [6]): >257.07
TGI (MOLT-4 [6]): > 100 µM
TGI (SN12C [7]): 4.41 µM
GI50 (DU-145 [9]): 0.666 µM
CC50 (DU-145 [9]): 50.1 µM
GI50 (NCI-H460 [10]): 0.754 µM
CC50 (NCI-H460 [10]): > 100 µM
TGI (KM12): > 100 µM
GI50 (OVCAR-8): 1.14 µM
CC50 (OVCAR-8): > 100 µM
TGI (OVCAR-8): 22.9 µM
TI (Therapeutic Index) (RPMI-8226): >10,000
TGI (RPMI-8226): 0.264 µM
TGI (EKVX): 16.2 µM
GI50 (UACC-62): 1.69 µM
CC50 (UACC-62): 8.78 µM
TGI (UACC-62): 3.85 µM
GI50 (HOP-62): 2.61 µM
CC50 (HOP-62): 11.6 µM
TGI (HT-29): > 100 µM
GI50 (HT-29): 2.14 µM
CC50 (HT-29): > 100 µM
TGI (NCI-H460 [12]): > 100 µM
TGI (T-47D): 7.71 µM

O=C(O)C(Cc1ccccc1)N1C(=O)/C(=C/C(Cl)=C/c2ccc([N+](=O)[O-])cc2)SC1=S (stereo not drawn) [Compound 2j, 2-{5-[(Z,2Z)-2-Chloro-3-(4-nitrophenyl)-2-propenylidene]-4-oxo-2-thioxothiazolidin-3-yl}-3-phenylpropanoic acid]
TGI (SNB-75): 5.37 µM
TGI (DU-145 [1]): 4.56 µM
GI50 (UO-31): 1.59 µM
CC50 (UO-31): 6.05 µM
TGI (UO-31): 3.10 µM
GI50 (OVCAR-3): 1.76 µM
CC50 (OVCAR-3): 6.98 µM
TGI (OVCAR-3): 3.51 µM
GI50 (OVCAR-5): 2.82 µM
CC50 (OVCAR-5): > 100 µM
TGI (OVCAR-5): 7.91 µM
TGI (SK-MEL-28 [13]): 4.68 µM
GI50 (SK-MEL-28 [14]): 2.16 µM
CC50 (SK-MEL-28 [14]): 11.6 µM
TGI (PC-3 [2]): 7.98 µM
TGI (LOX IMVI): 3.26 µM
TGI (Colo 205): > 100 µM
GI50 (Colo 205): 2.45 µM
CC50 (Colo 205): > 100 µM
GI50 (SN12C [3]): 2.84 µM
CC50 (SN12C [3]): > 100 µM
GI50 (MOLT-4 [4]): 3.14 µM
CC50 (MOLT-4 [4]): > 100 µM
GI50 (TK-10): 2.43 µM
CC50 (TK-10): > 100 µM
TGI (TK-10): > 100 µM
GI50 (PC-3 [5]): 2.53 µM
CC50 (PC-3 [5]): > 100 µM
TI (Therapeutic Index) (MOLT-4 [6]): 15.59
TGI (MOLT-4 [6]): > 100 µM
TGI (CCRF-CEM): > 100 µM
GI50 (CCRF-CEM): 2.92 µM
CC50 (CCRF-CEM): > 100 µM
TGI (SN12C [7]): > 100 µM
GI50 (SK-MEL-2 [8]): 1.87 µM
CC50 (SK-MEL-2 [8]): > 100 µM
GI50 (DU-145 [9]): 2.06 µM
CC50 (DU-145 [9]): 11.7 µM
GI50 (NCI-H460 [10]): 2.19 µM
CC50 (NCI-H460 [10]): > 100 µM
TGI (KM12): 4.35 µM
GI50 (OVCAR-8): 3.13 µM
CC50 (OVCAR-8): > 100 µM
TGI (OVCAR-8): > 100 µM
TI (Therapeutic Index) (RPMI-8226): 15.21
TGI (RPMI-8226): > 100 µM
TGI (EKVX): 7.29 µM
GI50 (NCI-H226): 1.58 µM
CC50 (NCI-H226): 6.76 µM
TGI (NCI-H226): 3.27 µM
GI50 (UACC-62): 2 µM
CC50 (UACC-62): 30.2 µM
TGI (UACC-62): 4.85 µM
GI50 (HOP-62): 2.31 µM
CC50 (HOP-62): > 100 µM
TGI (A498): 3.24 µM
GI50 (A498): 1.65 µM
CC50 (A498): 6.37 µM
TGI (SK-MEL-2 [11]): 4.50 µM
TGI (HT-29): 8.47 µM
GI50 (HT-29): 2.84 µM
CC50 (HT-29): > 100 µM
TGI (NCI-H460 [12]): > 100 µM
TGI (T-47D): 3.71 µM

— publication PMC8161026, “Synthesis and Anticancer Activity Evaluation of 5-[2-Chloro-3-(4-nitrophenyl)-2-propenylidene]-4-thiazolidinones” (Molecules, 2021)
